Test [1] can be described thus: WKY and SHR central hemodynamics (arterial blood pressure via femoral artery catheter, heart rate) after chronic doxycycline. The test is classed as in vivo, rat. The note with it: for Mean Blood Pressure: doxycycline 55 mg/liter in drinking water (~5.4 mg/kg/day); for Diastolic Blood Pressure / Heart Rate / Systolic Blood Pressure: doxycycline in drinking water; for Mean Arterial Blood Pressure during Chronic MMP Inhibition: after MMP inhibition for 12 weeks, age 30 weeks. As for the experimental part: Selected WKY and SHR were treated with doxycycline (55 mg/liter in drinking water, average consumption ˜5.4 mg/kg/day, West-Ward Pharmaceutical Corp., Eatontown, N.J.) for a period of 24 weeks. It should be noted that lower and higher concentrations are also effective. A range of effective does of about 1.0-20.0 mg/kg/day, resulting from the dissolution of about 5.5-220 mg of an MMP inhibitor per liter, may also be used to produce an effective result. Narrower ranges of MMP solute may also be used, for example, 75-180 mg, and 100 mg-150 mg. The ileocecal portion of the mesentery was prepared as described in Delano and Schmid-Schonbein, “The Glucocorticoid and Mineralocorticoid Receptor Distribution in a Microvascular Network of the Spontaneously Hypertensive Rat.” Briefly, arterial blood pressure was recorded via a femoral artery catheter. Individual sectors of mesentery were exposed via an abdominal midline incision while superfused with Krebs-Henseleit buffer (37° C., pH=7.4). The blood pressure of WKY and SHR was reduced by doxycycline treatment as shown below in Table 1, a trend that was detectable in terms of systolic, diastolic or mean blood pressure. […] In another experiment, and in order to explore the utility of chronic protease inhibition, a group of mature normotensive Wistar Kyoto rats (as well as a cohort of spontaneously hypertensive rats) were treated with a broad acting metafloproteases inhibitor (doxycycline, 55 mg/liter in drinking water, average consumption ˜5.4 mg/kg/day) over a period of 12 weeks until the age of 30 weeks.

The nature of test [2]: Blood cell counts (hematocrit, total leukocyte count). The note with it: for Leukocyte Count: doxycycline in drinking water. In kind it is in vivo, rat. On the procedure: Selected WKY and SHR were treated with doxycycline (55 mg/liter in drinking water, average consumption ˜5.4 mg/kg/day, West-Ward Pharmaceutical Corp., Eatontown, N.J.) for a period of 24 weeks. It should be noted that lower and higher concentrations are also effective. A range of effective does of about 1.0-20.0 mg/kg/day, resulting from the dissolution of about 5.5-220 mg of an MMP inhibitor per liter, may also be used to produce an effective result. Narrower ranges of MMP solute may also be used, for example, 75-180 mg, and 100 mg-150 mg. Fresh leukocytes were fixed on a blood smear in whole blood (using heparin as anticoagulant, 10 U/ml) with formalin solution and […] (10%, neutral buffered, 1 hr). Total leukocyte count was determined with a hemocytometer, and hematocrit was centrifuged in microhematocrit tubes. Neutrophils were separated in a density gradient (Histopaque-1077, Sigma Aldrich, spun at 42 g for 5 min).

Test [3] has as its system plasma proteases (metallo-, serine, acid and sulfhydryl proteases). Description: Plasma protease activity (fluorescent protease assay kit, Enzchek). Conditions: after MMP inhibition for 12 weeks, age 30 weeks. The test is classed as in vivo, rat. As for the experimental part:
Fresh plasma samples were frozen (−60 C) until measurements were taken. On the day of the experiment, the samples were unfrozen and tested simultaneously for overall protease activity with fluorescent protease assay kit (Enzchek, Cat #E-6638, Molecular Probes). The substrate was cleaved by a range of proteases (metallo-, serine, acid and sulfhydryl proteases). Protease activity was determined from fluorescent intensity after peptide cleavage (in fluorescent units). In another experiment, and in order to explore the utility of chronic protease inhibition, a group of mature normotensive Wistar Kyoto rats (as well as a cohort of spontaneously hypertensive rats) were treated with a broad acting metafloproteases inhibitor (doxycycline, 55 mg/liter in drinking water, average consumption ˜5.4 mg/kg/day) over a period of 12 weeks until the age of 30 weeks.

Test [4] in a line: Thymus weight normalized to body weight. In kind it is in vivo, rat. Conditions: chronic doxycycline, n = 5. The source says:
The reduced apoptosis in the thymus by MMP blockade is also confirmed by direct measurements of the organ weight (shown in Table 6).

Test [5] concerns apoptotic cells in thymus, kidney, skeletal muscle. Description: Apoptosis by TUNEL / propidium iodide labeling of frozen tissue sections. In kind it is in vivo, rat. The note with it: chronic doxycycline; for Fraction Of Apoptotic Cells, Thymus: tissue area of 10,000 μm^2. On the procedure: A subsequent study was performed to consider the reduction of cell apoptosis after chronic MMP inhibition. In addition to the dramatic reduction of blood pressure, free radical production, membrane receptor cleavage and other pathophysiological parameters (described elsewhere) that point towards organ injury in the SHR, cell apoptosis was also considered after MMP inhibition. […] For this purpose, a novel digital technique was introduced to determine nuclear fragmentation on freshly-harvested frozen tissue sections labeled for DNA breaks with the TUNEL technique and with propidium iodide (PI) for the detection of cell nuclei (see FIG. 9). […] PI-positive nuclei (B) are used to identify the total number of cells in the fields. Their image is superimposed on the bright field image of TUNEL-positive nuclei (dark brown color in A) to determine digitally the light absorption due to the TUNEL label (shown in green in panels C) and the level of apoptosis (C).

Test [6] concerns MMP-1 (collagenase-1) and MMP-9 (gelatinase B). Description: In-vivo zymography of mesentery with fluorogenic substrate. The note with it: EDTA 5 mM applied to mesentery. Set-up: species or system rat. As for the experimental part:
Measurement of MMP-1,9 activity was obtained by superfusion of the mesentery with fluorogenic substrate (0.5 μmol/L; catalogue number D2293, Sigma-Aldrich Inc., St. Louis, Mo.) added to the suffusate. The substrate was cleaved by MMP-1 (collagenase-1) and MMP-9 (gelatinase B). The mesentery was loaded with substrate 10 minutes prior to image collection and continuously suffused with substrate throughout the experiment. The associated fluorescence was visualized by epi-illumination at 280 nm passing through a 340 nm emission filter on a fluorescent intravital microscope (Leica), and recorded digitally for measurement of fluorescent intensity. Light intensity of the emitted fluorescent light was recorded in digital units (1-256) after subtraction of background intensity in the absence of the tissue with standardized microscope settings. Reproducibility of these measurements as determined by repeated measurements on the same specimen was within 3%.

Some results are limits rather than exact numbers.

Consider `C[C@H]1c2cccc(O)c2C(=O)C2=C(O)[C@]3(O)C(=O)C(C(N)=O)=C(O)[C@@H](N(C)C)[C@@H]3[C@@H](O)[C@@H]21` [doxycycline], for which the “Mean Blood Pressure” value in test [1] (SHR, n = 7) stood at 126.3 ± 13.5 mmHg; in test [1] (WKY rats, n = 6), 95.7 ± 8.5 mmHg. The “Diastolic Blood Pressure” value in test [1] (SHR) came to 99.4 ± 17.3 mmHg; in test [1] (WKY rats), 77.4 ± 6.8 mmHg. Further, the entries for the “Heart Rate” value in test [1] (SHR) and in test [1] (WKY rats) were 398 ± 60 beats/min and 364 ± 30 beats/min, respectively. The “Systolic Blood Pressure” value in test [1] (SHR) was 161.9 ± 14.5 mmHg; in test [1] (WKY rats) it was 125.3 ± 10.6 mmHg. Moreover, the results for the “Mean Arterial Blood Pressure during Chronic MMP Inhibition” value in test [1] (Spontaneously Hypertensive rat) and in test [1] (Wistar Kyoto rat) were 126.3 ± 13.5 mmHg and 95.7 ± 8.5 mmHg, respectively. For the same compound, the “Arterial pressure after treatment, relative to the Wistar rat” value in test [1] (WKY rats, Wistar rat about 105 mmHg) is reported as below 105 mmHg. In test [2] (SHR group), the “Leukocyte count after treatment as share of its usually high count” value is “less than 50%”. Besides, the “Leukocyte Count” value is listed as 2532 ± 574 in test [2] (SHR) and 2737 ± 272*, ** in test [2] (WKY rats). In addition, the figures for the “Plasma Protease Activity During Chronic MMP Inhibition” value in test [3] (Spontaneously Hypertensive rat) and in test [3] (Wistar Kyoto rat) were 472 ± 24 FU and 413 ± 40 FU, respectively. Moreover, the entries for the “Thymus Weight Normalized With Respect To Body Weight” value in test [4] (SHR) and in test [4] (WKY) were 87.4 ± 3.3 mg/100 g body wt and 81.4 ± 7.4 mg/100 g body wt, respectively. Moreover, the “Fraction Of Apoptotic Cells, Kidney” value in test [5] (SHR) amounted to 12.8 ± 5.2%; in test [5] (WKY), 5.1 ± 3.5%. Further, the “Fraction Of Apoptotic Cells, Skeletal muscle” value in test [5] (SHR) is recorded as 1.7 ± 2.4 %; in test [5] (WKY), 1.4 ± 1.3%. In addition, the “Fraction Of Apoptotic Cells, Thymus” value came out at 13.8 ± 9.1 % in test [5] (SHR) and 4.7 ± 3.0% in test [5] (WKY).
As to `O=C(O)CN(CCN(CC(=O)O)CC(=O)O)CC(=O)O` [EDTA, ethylenediaminetetraacetic acid], in test [6], the “Fluorescent intensity generated by the fluorogenic substrate” value was “undetectable”.
